No end group written: not given here.
System: cells
Experiment: MTT assay for cytotoxicity
Format: cell-based
Settings: within a range of used concentrations; FIGS. 3a and 3b

Sequence	cytotoxicity
VEHDKEFFHPRYHHR [BFP 2, Val-Glu-His-Asp-Lys-Glu-Phe-Phe-His-Pro-Arg-Tyr-His-His-Arg]	neither BFP 1 nor BFP 2 are toxic to cells
GQGFSYPYKAVFSTQ [BFP 1, Gly-Gln-Gly-Phe-Ser-Tyr-Pro-Tyr-Lys-Ala-Val-Phe-Ser-Thr-Gln]	neither BFP 1 nor BFP 2 are toxic to cells

Reference: patent publication EP2311482A1, “Osteogenic synthetic BMP-7 peptides, pharmaceutical compositions cell culture medium containing same” (Industry Foundation Of Chonnam National University, priority 2009, dated 2011)
